Source: PubChem BioAssay (NCI)
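48-hour exposure; five concentrations; linearly interpolated endpoints. TGI is the concentration that stops growth completely.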

Assays:
Test in all cases: growth of human tumour cells (NCI), 48 h
786-0 renal = system: 786-0 renal
A498 renal = system: A498 renal
BT-549 breast = system: BT-549 breast
CCRF-CEM leukemia = system: CCRF-CEM leukemia
HCT-15 colon = system: HCT-15 colon
HL-60(TB) leukemia = system: HL-60(TB) leukemia
HOP-62 NSCLC = system: HOP-62 NSCLC
K-562 leukemia = system: K-562 leukemia
M14 melanoma = system: M14 melanoma
MALME-3M melanoma = system: MALME-3M melanoma
MCF7 breast = system: MCF7 breast
MDA-MB-435 = system: MDA-MB-435
NCI-H226 lung = system: NCI-H226 lung
OVCAR-3 ovarian = system: OVCAR-3 ovarian
OVCAR-4 ovarian = system: OVCAR-4 ovarian
SK-OV-3 ovarian = system: SK-OV-3 ovarian
SN12C renal = system: SN12C renal
SNB-75 CNS = system: SNB-75 CNS
SW-620 colon = system: SW-620 colon
U251 CNS = system: U251 CNS

Row | SMILES | TGI (786-0 renal) | TGI (A498 renal) | TGI (BT-549 breast) | TGI (CCRF-CEM leukemia) | TGI (HCT-15 colon) | TGI (HL-60(TB) leukemia) | TGI (HOP-62 NSCLC) | TGI (K-562 leukemia) | TGI (M14 melanoma) | TGI (MALME-3M melanoma) | TGI (MCF7 breast) | TGI (MDA-MB-435) | TGI (NCI-H226 lung) | TGI (OVCAR-3 ovarian) | TGI (OVCAR-4 ovarian) | TGI (SK-OV-3 ovarian) | TGI (SN12C renal) | TGI (SNB-75 CNS) | TGI (SW-620 colon) | TGI (U251 CNS)
1 | Cc1ccc(N=C2OP(=O)(Nc3ccc(C)cc3)Oc3ccccc32)cc1 (stereo not given) | > 100 µM | > 100 µM | > 100 µM | > 100 µM | > 100 µM | > 100 µM | > 100 µM | > 100 µM | > 100 µM | > 100 µM | > 100 µM | > 100 µM | > 100 µM | > 100 µM | > 100 µM | > 100 µM | > 100 µM | > 100 µM | > 100 µM | > 100 µM
2 | [C-]#[N+]C(=C\c1ccc(O)cc1)/C(=C/c1ccc(O)cc1)[N+]#[C-] | > 100 µM | > 24.8 µM | > 23.1 µM | 6.55 µM | > 100 µM | > 24 µM | > 100 µM | > 100 µM | > 20.4 µM | 4.39 µM | > 36.7 µM | > 19.8 µM | > 22.7 µM | > 100 µM | > 100 µM | > 100 µM | 6.37 µM | 6.83 µM | > 34.3 µM | > 23.7 µM
3 | Nc1ncnc2c1ncn2[C@@H]1O[C@H](COP(=O)(O)OP(=O)(O)OC[C@H]2O[C@@H](OCCCO)[C@H](O)[C@@H]2O)[C@@H](O)[C@H]1O | > 100 µM | > 100 µM | > 100 µM | > 100 µM | > 100 µM | > 100 µM | > 100 µM | > 100 µM | > 100 µM | > 100 µM | > 100 µM | > 100 µM | > 100 µM | > 100 µM | > 100 µM | > 100 µM | > 100 µM | > 100 µM | > 100 µM | > 100 µM
4 | O=C1/C(=C/C=C/c2ccccc2)N=C(c2ccccc2)N1c1ccc(S(=O)(=O)Nc2nccs2)cc1 | > 100 µM | > 100 µM | 61.4 µM | > 100 µM | > 100 µM | > 100 µM | > 100 µM | > 100 µM | > 100 µM | > 100 µM | > 100 µM | > 100 µM | 55.5 µM | 48.2 µM | > 100 µM | 85.2 µM | > 100 µM | > 100 µM | > 100 µM | 59.3 µM
5 | [N-]=[N+]=Nc1c(-c2ccccc2)c(=O)n(-c2ccccc2)c2ccccc12 | > 100 µM | > 100 µM | > 100 µM | > 100 µM | > 100 µM | > 100 µM | > 100 µM | > 100 µM | > 100 µM | > 100 µM | > 100 µM | > 100 µM | > 100 µM | > 100 µM | > 100 µM | > 100 µM | > 100 µM | > 100 µM | > 100 µM | > 100 µM
6 | COc1ccc(C(=O)CCN(C)C)c2ccccc12 | 27.4 µM | > 88.8 µM | 37.6 µM | 11.8 µM | 48.7 µM | 37 µM | > 78.3 µM | 60 µM | 98.3 µM | 34.4 µM | 33.2 µM | 48.1 µM | > 100 µM | 36.9 µM | 65.1 µM | > 100 µM | 49.1 µM | 61.5 µM | 49.3 µM | 35.1 µM
7 | CCCCc1nc(C)oc1C(C)C | > 100 µM | > 100 µM | > 100 µM | > 100 µM | > 100 µM | > 100 µM | > 100 µM | > 100 µM | > 100 µM | > 100 µM | > 100 µM | > 100 µM | > 100 µM | > 100 µM | > 100 µM | > 100 µM | > 100 µM | > 100 µM | > 100 µM | > 100 µM
